Patent publication US4409240A, “Derivatives of dihydroxybenzoic acid and pharmaceutical composition thereof” (Kureha Kagaku Kogyo Kabushiki Kaisha, priority 1981, dated 1983)

Columns and labels:
[1] = tested on: platelet aggregation (rabbit platelet rich plasma); assay: Inhibitory effect on platelet aggregation (induced by sodium arachidonate); assay type: cell-based; settings: Oryctolagus cuniculus, average value, 1.5 mM of each Specimen, rabbit PRP, preincubated 37° C. 5 min, read-out: Inhibition rate of platelet aggregation
Method: Rabbit platelet rich plasma (PRP) was used for Aggregation Tests. PRP was prepared by centrifugation of blood collected from the ear vein of Rabbit and diluted into number-concentration 300,000/μl with platelet poor plasma. Platelet aggregation was induced by Sodium Arachidonate and monitored (measured) with a four channel platelet aggregation Tracer PAT-4A (Niko Bioscience Co., Japan). Aggregation Tracer tube containing 230 μl PRP was preincubated at 37° C. for 5 min with each Specimen.

[2] = tested on: polynuclear leukocyte migration; assay: Inhibitory effect on polynuclear leukocyte migration (Granuloma CMC pouch method); assay type: in vivo, rat (male, Donyru); settings: average value; 100 mg p.o./kg body weight; 6 hours after the administration; rat CMC pouch
Method: After shearing the rat on the dorsum about 5 cm in diameter, 5 ml of air was hypodermically injected into the site to form a pouch. After 24 hours, 5 ml of aqueous 2% (w/v) solution of CMC sodium salt at 37° C. was injected into the pouch, and at the same time an aqueous solution of each Specimen was administered perorally to the rat.
After the injection of CMC, the liquid in the pouch was collected as the time passed by in an amount of 0.5 ml and stained. Then the number of polynuclear leukocyte migrated into the pouch was counted.

adjuvant arthritis = assay: Prophylactic effect on adjuvant arthritis; assay type: in vivo, rat (female JCL-SD); settings: average value of prophylactic rate; 100 mg p.o./kg/day for continuous 14 days; rat
Method: Freund's complete adjuvant (0.6 mg/0.1 ml) was inoculated into the right hind paw of the etherized rat. After palinesthesia, each specimen was administered perorally once a day for 14 continuous days.

in vivo = settings: mouse, in vivo, po
Text: (§1) Acute toxicity was examined by administering perorally an aqueous solution of each Specimen to female JCL-ICR mouse of 5 to 6 weeks after birth. As the Specimen, trans-4-[N-(3',4'-dihydroxybenzoyl)aminomethyl]cyclohexane-1-carboxylic acid, 4-[N-(3',4'-dihydroxybenzoyl)amino]benzoic acid and 6-[N-(3',4'-dihydroxybenzoyl)amino]caproic acid were used.

female JCL-ICR mouse = assay: Acute toxicity; settings: peroral, aqueous solution, female JCL-ICR mouse 5 to 6 weeks
Text: as §1

SMILES	inhibition at 1500 µM [1]	Inhibition rate of polynuclear leukocyte migration [2]	Prophylactic effect on adjuvant arthritis (adjuvant arthritis)	LD50 (in vivo)	abnormality on the mouse (female JCL-ICR mouse)
O=C(NC[C@H]1CC[C@H](C(=O)O)CC1)c1ccccc1O.[Na] [Sodium trans-4-(N-salicyloyl-aminomethyl)cyclohexane-1-carboxylic acid, reference compound]	10%	5%	5%		
O=C(O)CCCCCNC(=O)c1ccc(O)c(O)c1 [6-[N-(3',4'-dihydroxybenzoyl)amino]caproic acid]				> 3000 mg/kg	no abnormality on the mouse was found
O=C(O)c1ccc(NC(=O)c2ccc(O)c(O)c2)cc1 [4-[N-(3',4'-dihydroxybenzoyl)amino]benzoic acid]				> 3000 mg/kg	no abnormality on the mouse was found
O=C(NC[C@H]1CC[C@H](C(=O)O)CC1)c1ccc(O)c(O)c1 [trans-4-[N-(3',4'-dihydroxybenzoyl)aminomethyl]cyclohexane-1-carboxylic acid]	100%	35%	30%	> 3000 mg/kg	no abnormality on the mouse was found
